US20070231837A1, “Method of Assessing Properties of Mammalian Cells, and Method of Diagnosing Cancer Using the Same” (priority 2004, published 2007)

System: breast cancer patients
Assay: Chemotherapeutic effect of anticancer agent: tumor size reduction evaluated by palpation in breast cancer patients
Format: in vivo, human
Experimental: An anticancer agent docetaxel (Aventis) was administered 4 times with an interval of 3 to 4 weeks, with 60 mg/M^2 (body surface area) per dosage for the breast cancer patients A through I. After the administration, the tumor size reduction was assessed.
A pathologist evaluated the tumors by palpation according to the criteria described in the following paper: Arbuck S G, Eisenhauer E A, Wanders J, Kaplan R S, Rubinstein L, Verweij J, Van Glabbeke M, van Oosterom A T, Christian M C, and Gwyther S G, “New guidelines to evaluate the response to treatment in solid tumors”, J. Natl. Cancer Inst 2000; 92: 205-21. When the tumor was evaluated with the result of “Complete response” and “Partial response”, the tumor was classified into the group of tumor size reduction. When the tumor was evaluated with the result of “Stable Disease” and “Progressive Disease”, the tumor was classified into the group of non-tumor size reduction.
An anticancer agent paclitaxel (Bristol Meyers Squibb) was administered once a week for 12 consecutive weeks, with 80 mg/M^2 (body surface area) per dosage for the breast cancer patients A through I (sic, correctly, J through P). After the administration, the tumor size reduction was assessed according to the same criterion as used in the administration of docetaxel.

[1] = docetaxel 60 mg/M^2 per dosage, 4 times with an interval of 3 to 4 weeks, breast cancer patients A through I

Row | Structure (SMILES) | patients who were assessed that the tumor size reduction was observed (paclitaxel 80 mg/M^2 per dosage, once a week for 12 consecutive weeks, breast cancer patients J through P) | patients classified into non-tumor size reduction group (Stable Disease or Progressive Disease) [1] | patients classified into tumor size reduction group (Complete response or Partial response) [1]
1 | CC(=O)O[C@H]1C(=O)[C@@]2(C)[C@H]([C@H](OC(=O)c3ccccc3)[C@]3(O)C[C@H](OC(=O)[C@H](O)[C@@H](NC(=O)c4ccccc4)c4ccccc4)C(C)=C1C3(C)C)[C@]1(OC(C)=O)CO[C@@H]1C[C@@H]2O [paclitaxel] | K, L, M, N, O, and P | – | –
2 | CC(=O)O[C@@]12CO[C@@H]1C[C@H](O)[C@@]1(C)C(=O)[C@H](O)C3=C(C)[C@@H](OC(=O)[C@H](O)[C@@H](NC(=O)OC(C)(C)C)c4ccccc4)C[C@@](O)([C@@H](OC(=O)c4ccccc4)[C@H]21)C3(C)C [docetaxel] | – | A, B, C, and D | E, F, G, H, and I
